Test results as given in PubChem BioAssay (NCI).
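Tested at 5 concentrations; 48 h exposure; 96-well plates; endpoints linearly interpolated, else capped at highest concentration. GI50 is the concentration that inhibits growth by half. TGI denotes the concentration required for complete inhibition of growth.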

Legend:
Assay in all cases: NCI tumour cell line growth inhibition, 48 h
[1] = tested on: HS 578T breast
[2] = tested on: MALME-3M melanoma
[3] = tested on: NCI-H522 lung
[4] = tested on: 786-0 renal
[5] = tested on: HCT-15 colon
[6] = tested on: SNB-19 CNS
[7] = tested on: SF-268 CNS
[8] = tested on: MDA-MB-468 breast
[9] = tested on: SR leukemia
[10] = tested on: LOX IMVI melanoma
[11] = tested on: MDA-MB-231 breast
[12] = tested on: OVCAR-3 ovarian
[13] = tested on: M14 melanoma
[14] = tested on: UACC-257 melanoma
[15] = tested on: NCI-H460 lung
[16] = tested on: MOLT-4 leukemia
[17] = tested on: KM12 colon
[18] = tested on: TK-10 renal
[19] = tested on: OVCAR-8 ovarian
[20] = tested on: RXF 393 renal
[21] = tested on: U251 CNS
[22] = tested on: SNB-75 CNS
[23] = tested on: HOP-92 NSCLC
[24] = tested on: CCRF-CEM leukemia
[25] = tested on: T-47D breast
[26] = tested on: RPMI-8226 leukemia
[27] = tested on: HCT-116 colon
[28] = tested on: HCC-2998 colon
[29] = tested on: PC-3 prostate
[30] = tested on: UACC-62 melanoma
[31] = tested on: A498 renal
[32] = tested on: A549 NSCLC
[33] = tested on: SK-OV-3 ovarian
[34] = tested on: SF-539 CNS
[35] = tested on: SK-MEL-2 melanoma
[36] = tested on: ACHN renal
[37] = tested on: IGROV1 ovarian
[38] = tested on: MCF7 breast
[39] = tested on: EKVX NSCLC
[40] = tested on: SN12C renal
[41] = tested on: BT-549 breast
[42] = tested on: SK-MEL-5 melanoma
[43] = tested on: HL-60(TB) leukemia
[44] = tested on: OVCAR-4 ovarian
[45] = tested on: NCI/ADR-RES ovarian
[46] = tested on: UO-31 renal
[47] = tested on: K-562 leukemia
[48] = tested on: NCI-H23 lung
[49] = tested on: SF-295 CNS
[50] = tested on: MDA-MB-435
[51] = tested on: SK-MEL-28 melanoma
[52] = tested on: CAKI-1 renal
[53] = tested on: SW-620 colon
[54] = tested on: HT29 colon
[55] = tested on: OVCAR-5 ovarian
[56] = tested on: DU-145 prostate
[57] = tested on: NCI-H226 lung
[58] = tested on: HOP-62 NSCLC
[59] = tested on: COLO 205 colon

## CC(=O)Nc1ccc(-c2cn(-c3cccc(C(=O)Nc4ccc(F)c(C(F)(F)F)c4)c3)nn2)cn1
[1]
  GI50: 17.4 µM
  TGI: 66.7 µM
[2]
  GI50: 9.6 µM
  TGI: 21.8 µM
[3]
  GI50: 17.7 µM
  TGI: 38.1 µM
[4]
  GI50: 2.6 µM
  TGI: 11.1 µM
[5]
  GI50: 17.2 µM
  TGI: 33.4 µM
[6]
  GI50: 19.5 µM
  TGI: 34.9 µM
[7]
  GI50: 26.5 µM
  TGI: 63.4 µM
[8]
  GI50: 14.8 µM
  TGI: 29 µM
[9]
  GI50: 31 µM
  TGI: > 100 µM
[10]
  GI50: 13.8 µM
  TGI: 26.7 µM
[11]
  GI50: 11.2 µM
  TGI: 24.1 µM
[12]
  GI50: 21.2 µM
  TGI: 41.4 µM
[13]
  GI50: 15 µM
  TGI: 41.3 µM
[14]
  GI50: 17.6 µM
  TGI: 38.6 µM
[15]
  GI50: 16.8 µM
  TGI: 32.2 µM
[16]
  GI50: 20.2 µM
  TGI: 61.1 µM
[17]
  GI50: 6.64 µM
  TGI: 53.5 µM
[18]
  GI50: 23.7 µM
  TGI: 41.1 µM
[19]
  GI50: 28 µM
  TGI: 89.8 µM
[20]
  GI50: 14.5 µM
  TGI: 31.6 µM
[21]
  GI50: 23.5 µM
  TGI: 57.7 µM
[22]
  GI50: 13.8 µM
  TGI: 35.7 µM
[23]
  GI50: 15.8 µM
  TGI: 35.1 µM
[24]
  GI50: 22.2 µM
  TGI: 71.5 µM
[25]
  GI50: 22.9 µM
  TGI: 66.4 µM
[26]
  GI50: 24.3 µM
  TGI: 66.2 µM
[27]
  GI50: 1.47 µM
  TGI: 18.2 µM
[28]
  GI50: 16.9 µM
  TGI: 32.6 µM
[29]
  GI50: 16 µM
  TGI: 38.1 µM
[30]
  GI50: 14.2 µM
  TGI: 27.6 µM
[31]
  GI50: 26.6 µM
  TGI: 43.4 µM
[32]
  GI50: 25.2 µM
  TGI: 68.5 µM
[33]
  GI50: 20.7 µM
  TGI: 45.4 µM
[34]
  GI50: 15.1 µM
  TGI: 28.5 µM
[35]
  GI50: 16.6 µM
  TGI: 34.4 µM
[36]
  GI50: 15.7 µM
  TGI: 30.1 µM
[37]
  GI50: 16.5 µM
  TGI: 30.9 µM
[38]
  GI50: 16 µM
  TGI: 34.3 µM
[39]
  GI50: 18.1 µM
  TGI: 34 µM
[40]
  GI50: 16.1 µM
  TGI: 30.4 µM
[41]
  GI50: 13.2 µM
  TGI: 30.9 µM
[42]
  GI50: 17.2 µM
  TGI: 34 µM
[43]
  GI50: 6.57 µM
  TGI: > 100 µM
[44]
  GI50: 20.3 µM
  TGI: 40.9 µM
[45]
  GI50: 27.5 µM
  TGI: 89.1 µM
[46]
  GI50: 15.4 µM
  TGI: 29.6 µM
[47]
  GI50: 4.13 µM
  TGI: 24.6 µM
[48]
  GI50: 14.8 µM
  TGI: 28.8 µM
[49]
  GI50: 14.6 µM
  TGI: 28.2 µM
[50]
  GI50: 16.8 µM
  TGI: 32.9 µM
[51]
  GI50: 14.6 µM
  TGI: 28 µM
[52]
  GI50: 17.3 µM
  TGI: 32.7 µM
[53]
  GI50: 17.1 µM
  TGI: 33.8 µM
[54]
  GI50: 16.3 µM
  TGI: 33.6 µM
[55]
  GI50: 17.7 µM
  TGI: 35 µM
[56]
  GI50: 27 µM
  TGI: 79.3 µM
[57]
  GI50: 18.4 µM
  TGI: 36.3 µM
[58]
  GI50: 21.2 µM
  TGI: 44.6 µM
[59]
  GI50: 18.3 µM
  TGI: 41.3 µM

## C=CC(=O)Nc1ccc(C(=O)/C=C/c2ccc(N(C)CCF)cc2)c(O)c1
[1]
  GI50: 2.97 µM
  TGI: 17.3 µM
[2]
  GI50: 1.43 µM
  TGI: 3.46 µM
[3]
  GI50: 1.42 µM
  TGI: 2.95 µM
[4]
  GI50: 1.65 µM
  TGI: 3.57 µM
[5]
  GI50: 1.41 µM
  TGI: 3.01 µM
[6]
  GI50: 3.67 µM
  TGI: 15 µM
[7]
  GI50: 2.47 µM
  TGI: 8.58 µM
[8]
  GI50: 1.63 µM
  TGI: 4.28 µM
[9]
  GI50: 0.586 µM
  TGI: 6.2 µM
[10]
  GI50: 1.33 µM
  TGI: 2.69 µM
[11]
  GI50: 2.19 µM
  TGI: 5.58 µM
[12]
  GI50: 1.62 µM
  TGI: 4.53 µM
[13]
  GI50: 1.7 µM
  TGI: 4.19 µM
[14]
  GI50: 2.53 µM
  TGI: 10.9 µM
[15]
  GI50: 1.87 µM
  TGI: 5.46 µM
[16]
  GI50: 1.99 µM
  TGI: 6.85 µM
[17]
  GI50: 2.1 µM
  TGI: 5.25 µM
[18]
  GI50: 3.12 µM
  TGI: 8.4 µM
[19]
  GI50: 1.51 µM
  TGI: 3.86 µM
[20]
  GI50: 1.52 µM
  TGI: 3.09 µM
[21]
  GI50: 1.88 µM
  TGI: 5.17 µM
[22]
  GI50: 2.1 µM
  TGI: 9.84 µM
[23]
  GI50: 0.527 µM
  TGI: 4 µM
[24]
  GI50: 2.15 µM
  TGI: 10.5 µM
[25]
  GI50: 2.47 µM
  TGI: 10 µM
[26]
  GI50: 1.6 µM
  TGI: 5.92 µM
[27]
  GI50: 1.5 µM
  TGI: 3 µM
[28]
  GI50: 1.78 µM
  TGI: 3.64 µM
[29]
  GI50: 2.22 µM
  TGI: 13.6 µM
[30]
  GI50: 1.3 µM
  TGI: 2.77 µM
[31]
  GI50: 3.52 µM
  TGI: 17.7 µM
[32]
  GI50: 2.62 µM
  TGI: 12.7 µM
[33]
  GI50: 6.47 µM
  TGI: 21.4 µM
[34]
  GI50: 1.67 µM
  TGI: 3.5 µM
[35]
  GI50: 2.53 µM
  TGI: 7.88 µM
[36]
  GI50: 1.66 µM
  TGI: 3.45 µM
[37]
  GI50: 2 µM
  TGI: 6 µM
[38]
  GI50: 1.89 µM
  TGI: 10.7 µM
[39]
  GI50: 3.37 µM
  TGI: 13.8 µM
[40]
  GI50: 1.86 µM
  TGI: 5.2 µM
[41]
  GI50: 1.55 µM
  TGI: 3.78 µM
[42]
  GI50: 2.14 µM
  TGI: 6.49 µM
[43]
  GI50: 1.77 µM
  TGI: 5.3 µM
[44]
  GI50: 2.95 µM
  TGI: 14 µM
[45]
  GI50: 1.55 µM
  TGI: 4.4 µM
[46]
  GI50: 1.28 µM
  TGI: 3.74 µM
[47]
  GI50: 2.27 µM
  TGI: 24 µM
[48]
  GI50: 1.68 µM
  TGI: 3.99 µM
[49]
  GI50: 4.49 µM
  TGI: 18.9 µM
[50]
  GI50: 1.72 µM
  TGI: 4.6 µM
[51]
  GI50: 1.58 µM
  TGI: 3.14 µM
[52]
  GI50: 1.87 µM
  TGI: 4.14 µM
[53]
  GI50: 1.52 µM
  TGI: 3.36 µM
[54]
  GI50: 1.57 µM
  TGI: 3.31 µM
[55]
  GI50: 1.98 µM
  TGI: 4.3 µM
[56]
  GI50: 2.52 µM
  TGI: 10.3 µM
[57]
  GI50: 1.92 µM
  TGI: 5.32 µM
[58]
  GI50: 3.26 µM
  TGI: 13 µM
[59]
  GI50: 1.98 µM
  TGI: 4.86 µM
